Results taken from patent US11931338B2, “Nitrilated psilocybin derivatives and methods of using” (Enveric Biosciences Canada Inc., priority 2020, dated 2024).

Assays:
[1] = target: T1, 5-HT1A receptor (Homo sapiens, UniProt P08908); test: cAMP-Glo assay in CHO-K1/5-HT1A/Gα15 (+5-HT1A) and CHO-K1/Gα15 (−5-HT1A) cells; conditions: for luminescence (cAMP) in +5HT1A cell culture at various compound concentrations: 5-HT1A activity: fixed (4 μM) forskolin, +5HT1A cells, FIG. 14B-14D; for relative cAMP levels with increasing compound concentration in +5HT1A and −5HT1A cells: constant (4 μM) forskolin, 5-HT1AR cells vs CHO-K1 cells, n=3, FIG. 14F, 14G
T1 sequence (P08908 1-422): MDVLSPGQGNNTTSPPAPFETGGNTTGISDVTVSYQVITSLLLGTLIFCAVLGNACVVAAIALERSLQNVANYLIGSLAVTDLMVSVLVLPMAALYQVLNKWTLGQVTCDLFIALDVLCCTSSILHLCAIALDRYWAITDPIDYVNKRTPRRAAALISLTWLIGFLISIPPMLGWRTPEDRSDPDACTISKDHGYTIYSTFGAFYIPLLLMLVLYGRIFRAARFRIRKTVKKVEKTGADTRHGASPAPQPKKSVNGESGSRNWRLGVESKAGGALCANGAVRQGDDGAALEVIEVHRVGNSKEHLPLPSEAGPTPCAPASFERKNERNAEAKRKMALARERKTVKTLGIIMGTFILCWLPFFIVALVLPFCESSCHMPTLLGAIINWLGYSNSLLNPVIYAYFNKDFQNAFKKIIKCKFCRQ
Description: CHO-K1/Gα15 (GenScript, M00257) (−5-HT1A) and CHO-K1/5-HT1A/Gα15 (GenScript, M00330) (+5-HT1A) cells lines were used. Briefly, CHO-K1/Gα15 is a control cell line that constitutively expresses Gα15 which is a promiscuous Gq protein. This control cell line lacks any transgene encoding 5-HT1A receptors, but still respond to forskolin; thus, cAMP response to forskolin should be the same regardless of whether or not 5-HT1A agonists are present. Conversely, CHO-K1/5-HT1A/Gα15 cells stably express 5-HT1A receptor in the CHO-K1 host background. […] In contrast, tryptophan is not known to activate 5-HT1A receptors, and was thus used as a negative control. Cells were maintained in complete growth media as recommended by supplier (GenScript) which is constituted as follows: Ham's F12 Nutrient mix (HAM's F12, GIBCO #11765-047) with 10% fetal bovine serum (FBS) (Thermo Scientific #12483020), 200 μg/ml zeocin (Thermo Scientific #R25005) and/or 100 μg/ml hygromycin (Thermo Scientific #10687010). The cells were cultured in a humidified incubator with 37° C. and 5% CO2. Cells maintenance was carried out as recommended by the cell supplier. Briefly, vials with cells were removed from the liquid nitrogen and thawed quickly in 37° C. water bath. Just before the cells were completely thawed the vial's outside was decontaminated by 70% ethanol spray. The cells suspension was then retrieved from the vial and added to warm (37° C.) complete growth media, and centrifuged at 1,000 rpm for 5 minutes. The supernatant was discarded and the cell pellet was then resuspended in another 10 ml of complete growth media, and added to the 10 cm cell culture dish (Greiner Bio-One #664160). The media was changed every third day until the cells were about 90% confluent. The ˜90% confluent cells were then split 10:1 for maintenance or used for experiment. As 5-HT1AR activation inhibits cAMP formation, the agonist activity of test molecules on 5-HT1AR was measured via the reduction in the levels of cAMP produced due to application of 4 μM forskolin. The change in intracellular cAMP levels due to the treatment of novel molecules was measured using cAMP-Glo Assay kit (Promega #V1501). Briefly, +5-HT1A cells were seeded on 1-6 columns and base −5-HT1A cells were seeded on columns 7-12 of the white walled clear bottom 96-well plate (Corning, #3903). Both cells were seeded at the density of 30,000 cells/well in 100 μl complete growth media and cultured 24 hrs in humidified incubator at 37° C. and 5% CO2. On the experiment day, the media of cells was replaced with serum/antibiotic free culture media. Then the cells were treated for 20 minutes with test molecules dissolved in induction medium (serum/antibiotic free culture media containing 4 μM forskolin, 500 μM IBMX (isobutyl-1-methylxanthine, Sigma-Aldrich, Cat. #17018) and 100 μM (RO 20-1724, Sigma-Aldrich, Cat. #B8279)). Forskolin induced cAMP formation whereas IBMX and RO 20-1724 inhibited the degradation of cAMP. PKA was added to the lysate, mixed, and subsequently the substrate of the PKA was added. PKA was activated by cAMP, and the amount of ATP consumed due to PKA phosphorylation directly corresponded to cAMP levels in the lysate. Reduced ATP caused reduced conversion of luciferin to oxyluciferin, conferring diminished luminescence as the result of 5-HT1A activation.

[2] = target: T2, 5-HT2A receptor (Homo sapiens, UniProt P28223); test: [3H]ketanserin competition binding assay (Scintillation Proximity Assay) with membranes containing 5-HT2A; conditions: fixed (1 nM) [3H]ketanserin; FIG. 13C, 13D
T2 construct: purchased PerkinElmer ES-313-M400UA
T2 sequence (P28223 whole entry): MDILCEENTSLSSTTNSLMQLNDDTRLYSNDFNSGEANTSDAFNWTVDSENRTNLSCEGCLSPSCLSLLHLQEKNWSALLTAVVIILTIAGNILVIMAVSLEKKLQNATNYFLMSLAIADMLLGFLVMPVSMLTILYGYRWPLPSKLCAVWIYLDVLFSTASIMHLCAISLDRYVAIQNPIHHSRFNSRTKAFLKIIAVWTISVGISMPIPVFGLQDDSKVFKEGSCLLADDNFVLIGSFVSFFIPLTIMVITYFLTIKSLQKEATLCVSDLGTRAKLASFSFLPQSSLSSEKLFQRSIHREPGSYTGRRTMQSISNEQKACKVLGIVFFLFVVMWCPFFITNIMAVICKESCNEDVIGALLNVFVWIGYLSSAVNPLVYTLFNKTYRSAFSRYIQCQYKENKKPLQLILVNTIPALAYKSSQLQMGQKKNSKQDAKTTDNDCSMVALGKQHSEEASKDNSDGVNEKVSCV
Description: Evaluation of drug binding is an essential step to characterization of all drug-target interactions (Fang 2012, Exp Opin Drug Discov 7:969). The binding affinity of a drug to a target is traditionally viewed as an acceptable surrogate of its in vivo efficacy (Núñez et al., 2012, Drug Disc Today 17: 10). Competition assays, also called displacement or modulation binding assays, are a common approach to measure activity of a ligand at a target receptor (Flanagan 2016, Methods Cell Biol 132: 191). In these assays, standard radioligands acting either as agonists or antagonists are ascribed to specific receptors. […] After incubation, the samples were read on a MicroBeta 2 Microplate Counter (Perkin Elmer). […] Equilibrium binding constants for ketanserin (Kd) were determined from saturation binding curves using the ‘one-site saturation binding analysis’ method of GraphPad PRISM software (Version 9.2.0). […] Ki values were calculated from the competition displacement data using the competitive binding analysis from GraphPad PRISM software. […] Specific binding in counts per minute (cpm) was calculated by subtracting non-specific binding from total binding. Specific binding (pmol/mg) was calculated from pmol of [^3H]ketanserin bound per mg of protein in the assay. The Kd was calculated by fitting the data with the one-site binding model of PRISM software (version 9.2.0).

CN(C)CCc1c[nH]c2ccccc12 [DMT]
luminescence (cAMP) in +5HT1A cell culture at various compound concentrations: 5-HT1A activity [1]: 5-HT1A activity

CC(=O)NCCc1c[nH]c2c(C)cc(C#N)cc12 [compound (VIII), N-[2-(5-cyano-7-methyl-1H-indol-3-yl)ethyl]acetamide]
relative cAMP levels with increasing compound concentration in +5HT1A and −5HT1A cells [1]: agonist of 5HT1A | luminescence (cAMP) in +5HT1A cell culture at various compound concentrations: 5-HT1A activity [1]: 5-HT1A activity

CN(C)CCc1c[nH]c2cccc(O)c12 [psilocin]
competition binding curve against [3H]ketanserin at the 5-HT2A receptor [2]: binding

NCCc1c[nH]c2ccc(O)cc12 [serotonin]
relative cAMP levels with increasing compound concentration in +5HT1A and −5HT1A cells [1]: agonist of 5HT1A

N[C@@H](Cc1c[nH]c2ccccc12)C(=O)O [tryptophan]
competition binding curve against [3H]ketanserin at the 5-HT2A receptor [2]: no binding | luminescence (cAMP) in +5HT1A cell culture at various compound concentrations: 5-HT1A activity [1]: lack of 5-HT1A activity
